# Experiments:
# Assay type in all cases: cell-based
# [1] = target: T1, EGFR L858R (BaF3-L858R cells) (Homo sapiens, UniProt P00533, L858R); assay: Cell degradation of EGFR, HTRF assay, BaF3-L858R cells; settings: 16 h treatment; for DC50: EGFR degradation; for Dmax: maximum percentage of degradation
# T1 construct: host or cells: BaF3
# How it was run: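 EGFR L858R levels measured by HTRF antibody pair in lysed BaF3-L858R cells after 16 h compound exposure (8-point 5-fold series from 10 uM final, 37° C). Degradation is relative to DMSO-only cells; DC50 fitted with Hill equation, Dmax taken as the largest percent loss.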
# [2] = target: T2, EGFR-L858R/C797S (H1975-clone #8 cells) (Homo sapiens, UniProt P00533, C797S/L858R); assay: Cell degradation of EGFR, HTRF assay, H1975-clone#8 (L858R/C797S) cells; settings: 16 h treatment; for DC50: EGFR degradation; for Dmax: maximum percentage of degradation
# T2 construct: expressed in transfected cells; host or cells: H1975 (endogenous EGFR knocked out, clone #8)
# [3] = target: T3, p-EGFR L858R (BaF3-L858R cells) (Homo sapiens, UniProt P00533, L858R); assay: Cell p-EGFR inhibition assay, HTRF, BaF3-L858R cells; settings: 16 h treatment; for Imax (%): maximum percentage of pEGFR inhibition; for IC50: pEGFR inhibition
# T3 construct: host or cells: BaF3
# How it was run: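 BaF3-L858R cells treated 16 h at 37 °C, 5% CO2 with compound from 10 uM top, 5-fold dilutions, 8 doses, in 0.1% DMSO medium. Lysates read overnight by HTRF p-EGFR antibodies; IC50 fitted to four-parameter curve against DMSO high control.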
# [4] = target: p-EGFR Del19/C797S (H1975-clone #23 cells) (Homo sapiens, UniProt P00533); assay: Cell p-EGFR inhibition assay, HTRF, H1975-clone#23 (DEL19/C797S) cells; settings: 16 h treatment; for Imax (%): maximum percentage of pEGFR inhibition; for IC50: pEGFR inhibition
# How it was run: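 Phospho-EGFR read by overnight HTRF on lysates, normalized to DMSO-treated high control; IC50, Hill slope and Imax fitted. Compounds were applied for 16 h (10 uM top, 5-fold steps, 8 doses) to an H1975 single clone carrying only exogenous Del19/C797S EGFR after sgRNA knockout of endogenous copies.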
SMILES,DC50 [1] [nM],Dmax [1] [%],DC50 [2] [nM],Dmax [2] [%],Imax (%) [3] [%],IC50 [3] [nM],Imax (%) [4] [%],IC50 [4] [nM]
"COC[C@H]1CN(c2ccc3c(c2)N2CC4CC[C@H](COc5c(c(C)nn5C)-c5cc(cc(C)n5)C(=O)/N=C/2N3)C4)CCN1C1CCN(c2cc(F)c(C3CCC(=O)NC3=O)nc2C)CC1 (stereo partly drawn) [Example 90, 3-(3-fluoro-5-(4-((R)-2-(methoxymethyl)-4-((7^1R,7^3S,E)-1^1,1^3,2^6-trimethyl-3-oxo-5^2,5^3-dihydro-1^1H,5^1H-9-oxa-4-aza-5(2,1)-benzo[d]imidazola-2(2,4)-pyridina-1(4,5)-pyrazola-7(1,3)-cyclopentanacyclononaphane-5^6-yl)piperazin-1-yl)piperidin-1-yl)-6-methylpyridin-2-yl)piperidine-2,6-dione]",3.21,80.6,2.06,87.4,98.4,6.3,101.7,2.5
"COC[C@@H]1CN(c2cc3c(cc2C)N/C2=N\C(=O)c4cc(C)nc(c4)-c4c(C)nn(C)c4OC[C@H]4CC[C@H](C4)CN23)CCN1C1CCN(c2cc(F)c([C@H]3CCC(=O)NC3=O)c(F)c2)CC1 [Example 173, (R)-3-(2,6-difluoro-4-(4-((S)-2-(methoxymethyl)-4-((7^1R,7^3S,E)-1^1,1^3,2^6,5^5-tetramethyl-3-oxo-5^2,5^3-dihydro-1^1H,5^1H-9-oxa-4-aza-5(2,1)-benzo[d]imidazola-2(2,4)-pyridina-1(4,5)-pyrazola-7(1,3)-cyclopentanacyclononaphane-5^6-yl)piperazin-1-yl)piperidin-1-yl)phenyl)piperidine-2,6-dione]",4.28,95.2,4.31,91.4,98.39,11.5,103.01,3.94
"COC[C@@H]1CN(c2ccc3c(c2)N2CC4CC[C@H](COc5c(c(C)nn5C)-c5cc(cc(C)n5)C(=O)/N=C/2N3)C4)CCN1CC1CCN(c2cc(F)c([C@H]3CCC(=O)NC3=O)c(F)c2)CC1 [Example 127, (R)-3-(2,6-difluoro-4-(4-(((S)-2-(methoxymethyl)-4-((7^1R,7^3S,E)-1^1,1^3,2^6-trimethyl-3-oxo-5^2,5^3-dihydro-1^1H,5^1H-9-oxa-4-aza-5(2,1)-benzo[d]imidazola-2(2,4)-pyridina-1(4,5)-pyrazola-7(1,3)-cyclopentanacyclononaphane-5^6-yl)piperazin-1-yl)methyl)piperidin-1-yl)phenyl)piperidine-2,6-dione]",9.26,88.8,6.07,81.9,101.7,4.89,100.85,4.06
"COCCn1nc(C)c2c1OC[C@H]1CC[C@H](C1)CN1/C(=N/C(=O)c3cc(C)nc-2c3)Nc2ccc(N3CCN(C4CCN(c5cc(F)c([C@H]6CCC(=O)NC6=O)c(F)c5)CC4)CC3)cc21 [Example 161, (R)-3-(2,6-difluoro-4-(4-(4-((7^1R,7^3S,E)-1^1-(2-methoxyethyl)-1^3,2^6-dimethyl-3-oxo-5^2,5^3-dihydro-1^1H,5^1H-9-oxa-4-aza-5(2,1)-benzo[d]imidazola-2(2,4)-pyridina-1(4,5)-pyrazola-7(1,3)-cyclopentanacyclononaphane-5^6-yl)piperazin-1-yl)piperidin-1-yl)phenyl)piperidine-2,6-dione]",7.2,91.4,2.96,89.3,93.23,4.51,95.04,0.49

# More lines, in order of falling DC50 [1], values ahead:
DC50 [1] [nM],Dmax [1] [%],DC50 [2] [nM],Dmax [2] [%],Imax (%) [3] [%],IC50 [3] [nM],Imax (%) [4] [%],IC50 [4] [nM],SMILES
5.75,90.3,3.05,85.8,92.5,1.22,99.83,0.539,"Cc1cc2cc(n1)-c1c(C)nn(C)c1OC[C@H]1CC[C@H](C1)CN1/C(=N/C2=O)Nc2ccc(N3CCN(CC4CN(c5cc(F)c([C@H]6CCC(=O)NC6=O)c(F)c5)C4)[C@H](C(F)F)C3)cc21 [Example 205, (R)-3-(4-(3-(((S)-2-(difluoromethyl)-4-((7R,7^3S,E)-1^1,1^3,2^6-trimethyl-3-oxo-5^2,5^3-dihydro-1^1H,5^1H-9-oxa-4-aza-5(2,1)-benzo[d]imidazola-2(2,4)-pyridina-1(4,5)-pyrazola-7(1,3)-cyclopentanacyclononaphane-5^6-yl)piperazin-1-yl)methyl)azetidin-1-yl)-2,6-difluorophenyl)piperidine-2,6-dione]"
4.4,87.6,2.38,90.2,92.5,< 0.128,100.03,2.11,"CC[C@H]1CN(c2ccc3c(c2)N2C[C@@H]4CC[C@H](COc5c(c(C)nn5C)-c5cc(cc(C)n5)C(=O)/N=C/2N3)C4)CCN1C1CCN(c2cc(F)c([C@H]3CCC(=O)NC3=O)c(F)c2)CC1 [Example 189, (R)-3-(4-(4-((S)-2-ethyl-4-((7^1R,7^3S,E)-1^1,1^3,2^6-trimethyl-3-oxo-5^2,5^3-dihydro-1^1H,5^1H-9-oxa-4-aza-5(2,1)-benzo[d]imidazola-2(2,4)-pyridina-1(4,5)-pyrazola-7(1,3)-cyclopentanacyclononaphane-5^6-yl)piperazin-1-yl)piperidin-1-yl)-2,6-difluorophenyl)piperidine-2,6-dione]"
3.68,82.7,4.09,85.2,93.9,10.1,100.1,0.7,"Cc1cc2cc(n1)-c1cnn(C)c1OC[C@H]1CCC(C1)CN1/C(=N/C2=O)Nc2ccc(N3CCN([C@@H]4CCN(c5ccc(C6CCC(=O)NC6=O)nc5C)CC4(F)F)CC3)cc21 (stereo partly drawn) [Example 105, 3-(5-((R)-4-(4-((7^1R,7^3S,E)-1^1,2^6-dimethyl-3-oxo-5^2,5^3-dihydro-1^1H,5^1H-9-oxa-4-aza-5(2,1)-benzo[d]imidazola-2(2,4)-pyridina-1(4,5)-pyrazola-7(1,3)-cyclopentanacyclononaphane-5^6-yl)piperazin-1-yl)-3,3-difluoropiperidin-1-yl)-6-methylpyridin-2-yl)piperidine-2,6-dione]"
3.23,84.8,3.87,79.4,94.9,7.8,101,0.7,"Cc1cc2cc(n1)-c1cnn(C)c1OC[C@H]1CCC(C1)CN1/C(=N/C2=O)Nc2ccc(N3CCN([C@H]4CCN(c5ccc(C6CCC(=O)NC6=O)nc5C)C[C@@H]4F)CC3)cc21 (stereo partly drawn) [Example 76, 3-(5-((3S,4S)-4-(4-((7^1R,7^3S,E)-1^1,2^6-dimethyl-3-oxo-5^2,5^3-dihydro-1^1H,5^1H-9-oxa-4-aza-5(2,1)-benzo[d]imidazola-2(2,4)-pyridina-1(4,5)-pyrazola-7(1,3)-cyclopentanacyclononaphane-5^6-yl)piperazin-1-yl)-3-fluoropiperidin-1-yl)-6-methylpyridin-2-yl)piperidine-2,6-dione]"
2.6,80.6,2.49,75,110.3,4.7,101.3,1.4,"Cc1cc2cc(n1)-c1cnn(C)c1OC[C@H]1CCC(C1)CN1/C(=N/C2=O)Nc2ccc(N3CCN(C4CCN(c5ccc(NC6CCC(=O)NC6=O)nc5C)CC4)CC3)cc21 (some centres unmarked) [Example 98, 3-((5-(4-(4-((7^1R,7^3S,E)-1^1,2^6-dimethyl-3-oxo-5^2,5^3-dihydro-1^1H,5^1H-9-oxa-4-aza-5(2,1)-benzo[d]imidazola-2(2,4)-pyridina-1(4,5)-pyrazola-7(1,3)-cyclopentanacyclononaphane-5^6-yl)piperazin-1-yl)piperidin-1-yl)-6-methylpyridin-2-yl)amino)piperidine-2,6-dione]"
2.22,81.8,1.58,90.2,106.4,3.5,101,1,"Cc1cc2cc(n1)-c1c(C)nn(C)c1OC[C@H]1CC[C@H](C1)CN1/C(=N/C2=O)Nc2ccc(N3CCN([C@H]4CCN(c5cnc(C6CCC(=O)NC6=O)cc5C)CC4(F)F)CC3)cc21 (stereo partly drawn) [Example 101, 3-(5-((S)-3,3-difluoro-4-(4-((7^1R,7^3S,E)-1^1,1^3,2^6-trimethyl-3-oxo-5^2,5^3-dihydro-1^1H,5^1H-9-oxa-4-aza-5(2,1)-benzo[d]imidazola-2(2,4)-pyridina-1(4,5)-pyrazola-7(1,3)-cyclopentanacyclononaphane-5^6-yl)piperazin-1-yl)piperidin-1-yl)-4-methylpyridin-2-yl)piperidine-2,6-dione]"
